Assay results as given in ChEMBL document CHEMBL1201862, “PubChem BioAssay data set” (2004).
Active and inactive are the calls of the source.

What was measured:
Cytochrome P450 1A2 = target: T1, Cytochrome P450 1A2 (Homo sapiens, UniProt P05177);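 also: PubChem cytochrome P450 panel assay, CYP1A2 panel member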
T1 sequence (P05177 whole entry): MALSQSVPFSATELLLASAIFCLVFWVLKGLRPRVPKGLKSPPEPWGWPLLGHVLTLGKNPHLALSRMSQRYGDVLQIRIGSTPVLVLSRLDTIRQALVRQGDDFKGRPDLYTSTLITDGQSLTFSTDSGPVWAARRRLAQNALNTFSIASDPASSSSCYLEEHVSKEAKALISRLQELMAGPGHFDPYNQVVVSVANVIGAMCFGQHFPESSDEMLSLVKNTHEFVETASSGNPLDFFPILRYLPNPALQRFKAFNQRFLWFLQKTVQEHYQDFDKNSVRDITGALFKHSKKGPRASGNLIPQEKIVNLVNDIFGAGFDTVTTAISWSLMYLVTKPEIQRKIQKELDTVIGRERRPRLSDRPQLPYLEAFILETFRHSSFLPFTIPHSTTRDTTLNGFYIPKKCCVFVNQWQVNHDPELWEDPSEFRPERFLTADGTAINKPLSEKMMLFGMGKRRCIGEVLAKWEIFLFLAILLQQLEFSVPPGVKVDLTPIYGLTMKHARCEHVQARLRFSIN

Cytochrome P450 2C19 = Cytochrome P450 2C19 (Homo sapiens, UniProt P33261); assay: Cytochrome panel assay with activity outcomes. Panel member name: p450-cyp2c19 Compounds with AC50 equal or less than 10 uM are considered active; assay type: functional
Cytochrome P450 3A4 = Cytochrome P450 3A4 (Homo sapiens, UniProt P08684);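 also: CYP3A4 tested as one member of a cytochrome P450 panel screen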
[1] = target: T2, Replicative DNA helicase DnaB (Mycobacterium tuberculosis, UniProt P9WMR3); assay: DnaB intein splicing inhibitors, dose response, biochemical, cell-free fluorescence (AID 449749); assay type: functional
T2 sequence (P9WMR3 whole entry): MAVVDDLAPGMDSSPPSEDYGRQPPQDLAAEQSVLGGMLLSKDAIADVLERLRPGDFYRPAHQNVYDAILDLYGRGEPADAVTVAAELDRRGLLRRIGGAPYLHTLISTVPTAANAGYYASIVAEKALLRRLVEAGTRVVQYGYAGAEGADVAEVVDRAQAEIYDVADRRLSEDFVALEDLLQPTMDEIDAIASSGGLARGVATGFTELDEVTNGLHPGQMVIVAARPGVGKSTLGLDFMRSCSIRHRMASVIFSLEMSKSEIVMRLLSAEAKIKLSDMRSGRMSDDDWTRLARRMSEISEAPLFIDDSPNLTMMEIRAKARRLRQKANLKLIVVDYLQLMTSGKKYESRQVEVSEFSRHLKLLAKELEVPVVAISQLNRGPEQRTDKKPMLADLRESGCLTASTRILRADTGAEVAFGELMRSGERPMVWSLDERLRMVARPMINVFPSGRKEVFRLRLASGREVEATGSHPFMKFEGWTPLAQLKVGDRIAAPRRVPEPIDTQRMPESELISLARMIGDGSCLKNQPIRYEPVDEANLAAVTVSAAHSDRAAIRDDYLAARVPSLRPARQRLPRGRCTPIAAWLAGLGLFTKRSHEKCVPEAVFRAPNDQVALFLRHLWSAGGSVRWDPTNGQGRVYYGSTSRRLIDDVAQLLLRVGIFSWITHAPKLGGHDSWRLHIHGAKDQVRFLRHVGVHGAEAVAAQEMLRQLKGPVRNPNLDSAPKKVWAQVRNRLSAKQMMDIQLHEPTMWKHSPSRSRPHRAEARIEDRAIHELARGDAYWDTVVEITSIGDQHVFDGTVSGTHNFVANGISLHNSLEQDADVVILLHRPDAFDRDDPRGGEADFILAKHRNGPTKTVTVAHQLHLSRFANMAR

Protein RecA = target: T3, Protein RecA (Mycobacterium tuberculosis, UniProt P9WHJ3); assay: Fluorescence Cell-Free Homogeneous Dose Retest to Identify Inhibitors of RecA-Intein Splicing Activity. [Related pubchem assays (depositor defined):AID2097, AID2223, AID489010, AID492950]; assay type: functional
T3 sequence (P9WHJ3 whole entry): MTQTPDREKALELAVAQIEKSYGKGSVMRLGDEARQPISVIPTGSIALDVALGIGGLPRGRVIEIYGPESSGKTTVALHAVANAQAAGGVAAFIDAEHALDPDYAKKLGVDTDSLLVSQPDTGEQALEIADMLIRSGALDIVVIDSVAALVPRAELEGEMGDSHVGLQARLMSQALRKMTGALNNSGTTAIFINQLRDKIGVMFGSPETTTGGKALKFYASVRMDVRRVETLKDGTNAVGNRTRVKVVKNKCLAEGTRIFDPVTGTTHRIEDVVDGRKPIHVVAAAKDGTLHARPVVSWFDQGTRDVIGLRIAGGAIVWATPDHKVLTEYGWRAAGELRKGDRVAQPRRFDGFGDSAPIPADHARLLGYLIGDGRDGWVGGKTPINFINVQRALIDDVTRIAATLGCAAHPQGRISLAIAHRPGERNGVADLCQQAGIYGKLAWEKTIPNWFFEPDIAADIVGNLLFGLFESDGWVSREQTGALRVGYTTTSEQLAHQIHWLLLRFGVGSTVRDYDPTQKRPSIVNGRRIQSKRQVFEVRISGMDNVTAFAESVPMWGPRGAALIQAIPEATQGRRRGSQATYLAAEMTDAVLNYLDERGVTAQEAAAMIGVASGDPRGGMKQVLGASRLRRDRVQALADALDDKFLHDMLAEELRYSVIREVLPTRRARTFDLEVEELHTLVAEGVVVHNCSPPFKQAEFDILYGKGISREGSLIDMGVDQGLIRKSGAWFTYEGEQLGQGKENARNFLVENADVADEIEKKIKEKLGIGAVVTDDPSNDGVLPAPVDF

[2] = Luminescence Cell-Based Dose Retest to Confirm Inhibitors of Cancer Stem Cells. [Related pubchem assays (depositor defined):AID2717, AID2721]; assay type: functional; conditions: Homo sapiens
[3] = tested on: Streptococcus sp. 'group A'; assay: growth inhibition of control SK(-) GAS strain, dose response, counter-screen for streptokinase expression inhibitor project, luminescence, kanamycin, BacTiterGlo, confirmation (AID 1900); assay type: functional, organism-based
Streptococcus = assay: Group A Streptococcus viability loss, dose response, counter-screen for streptokinase expression inhibitor project, luminescence, BacTiterGlo (AID 1915); assay type: functional, organism-based;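 also: potency for reduction of bacterial viability or growth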

Sequence of Cytochrome P450 2C19 (P33261 whole entry): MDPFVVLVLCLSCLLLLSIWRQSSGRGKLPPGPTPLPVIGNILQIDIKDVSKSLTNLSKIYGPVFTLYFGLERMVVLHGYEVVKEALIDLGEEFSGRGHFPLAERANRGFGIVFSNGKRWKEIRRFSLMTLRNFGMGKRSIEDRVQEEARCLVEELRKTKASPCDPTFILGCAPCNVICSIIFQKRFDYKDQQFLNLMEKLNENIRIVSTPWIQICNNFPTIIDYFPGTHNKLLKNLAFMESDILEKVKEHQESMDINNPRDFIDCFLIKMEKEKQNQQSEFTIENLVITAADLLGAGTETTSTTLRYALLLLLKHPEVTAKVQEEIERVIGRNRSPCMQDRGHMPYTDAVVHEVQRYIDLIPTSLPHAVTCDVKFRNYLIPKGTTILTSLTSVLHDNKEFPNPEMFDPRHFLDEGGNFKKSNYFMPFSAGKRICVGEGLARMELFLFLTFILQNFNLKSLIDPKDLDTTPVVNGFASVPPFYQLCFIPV
Sequence of Cytochrome P450 3A4 (P08684 whole entry): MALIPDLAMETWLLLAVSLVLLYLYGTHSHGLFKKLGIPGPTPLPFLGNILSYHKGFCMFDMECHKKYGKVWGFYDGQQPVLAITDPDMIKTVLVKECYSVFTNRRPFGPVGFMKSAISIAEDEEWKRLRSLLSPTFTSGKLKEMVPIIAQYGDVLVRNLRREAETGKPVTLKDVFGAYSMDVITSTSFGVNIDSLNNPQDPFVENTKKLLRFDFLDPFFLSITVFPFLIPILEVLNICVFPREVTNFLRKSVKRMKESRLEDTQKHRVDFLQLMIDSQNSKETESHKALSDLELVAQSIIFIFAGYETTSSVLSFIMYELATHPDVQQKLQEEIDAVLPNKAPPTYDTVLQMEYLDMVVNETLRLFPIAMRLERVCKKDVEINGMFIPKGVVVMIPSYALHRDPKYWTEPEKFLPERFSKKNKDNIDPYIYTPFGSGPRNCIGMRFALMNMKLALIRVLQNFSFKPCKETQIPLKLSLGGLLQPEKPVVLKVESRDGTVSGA

COC(=O)COc1ccsc1C(=O)OC
AC50 (Cytochrome P450 1A2): 28.2 µM (inconclusive)

Cc1cc(NC(=O)C2CCCC2)n(-c2nc3ccccc3[nH]2)n1
AC50 (Cytochrome P450 2C19; read-out: AC50): 10 µM (inconclusive)

COc1ccc(-n2c(=O)cnc3cnc(OC)nc32)cc1
AC50 (Cytochrome P450 1A2): 20 µM (inconclusive)

CC(C)(C)n1nc2c(c1NC(=O)c1ccc(S(=O)(=O)N3CCCCC3)cc1)C[S+]([O-])C2 (stereo unspecified)
AC50 (Cytochrome P450 2C19; read-out: AC50): 25.1 µM (inconclusive)
AC50 (Cytochrome P450 3A4): 14.1 µM (inconclusive)

Cc1ccc(-c2nc(CN3CCCC(C(=O)N4CCOCC4)C3)c(C)o2)cc1 (stereo unspecified)
AC50 [1]: > 380 µM (inactive)
EC50 (Protein RecA): > 380 µM (inactive)

CN(C)c1ncc2nc(-c3cc(F)cc(F)c3)c(=O)n(C[C@H]3CCCO3)c2n1
AC50 (Cytochrome P450 1A2): 0.0794 µM (inconclusive)

C[C@](N)(C(=O)O)c1ccc(-c2nnn[nH]2)cc1
AC50 (Cytochrome P450 2C19; read-out: AC50): 7.94 µM (inconclusive)
AC50 (Cytochrome P450 1A2): 39.8 µM (inconclusive)

O=C(O)COc1ccc(/C=C2/SC(=S)N(Cc3ccccc3)C2=O)cc1
AC50 [1]: 13.7 µM (active)
EC50 (Protein RecA): 8.33 µM (active)

CC(Oc1ccccc1)C(=O)Nc1nc2c(s1)C(=O)CC(C)(C)C2 (stereo unspecified)
AC50 (Cytochrome P450 1A2): 15.8 µM (inconclusive)

COc1cccc(Cn2c(=O)cnc3cnc(Oc4ccccc4)nc32)c1
AC50 (Cytochrome P450 2C19; read-out: AC50): 5.01 µM (inconclusive)

Cc1noc(C)c1C(=O)N1CCC[C@@]2(CCN(C(=O)Nc3ccccc3)C2)C1
AC50 (Cytochrome P450 1A2): 39.8 µM (inconclusive)

COCCn1c(=O)c(-c2cc(F)cc(F)c2)nc2cnc(N3CCOCC3)nc21
AC50 (Cytochrome P450 1A2): 12.6 µM (inconclusive)

CN1CCN(c2ccc(NC(=O)c3ccc(C#N)cc3F)cc2Cl)CC1
AC50 [2]: 11.9 µM (active)

CC(=O)NCCNc1ncnc2ccc(-c3c(C)noc3C)cc12
AC50 (Cytochrome P450 3A4): 25.1 µM (inconclusive)

Cc1ccc(OCC(=O)NNC(=O)c2cccnc2)cc1
AC50 (Cytochrome P450 2C19; read-out: AC50): 3.16 µM (inconclusive)
AC50 (Cytochrome P450 3A4): 25.1 µM (inconclusive)

O=C(NC(=S)Nc1nc(-c2ccc(Br)cc2)cs1)c1cccnc1
AC50 (Cytochrome P450 1A2): 3.55 µM (inconclusive)

O=C(Nc1ccc(O)c(-c2nc3ccccc3o2)c1)C1(c2ccc(Br)cc2)CCCC1
AC50 [2]: > 195 µM (inactive)

CC(C)C(O)(C(C)C)C(C)C
AC50 (Cytochrome P450 2C19): inconclusive

CC(C)C12CN3CC(C(C)C)(CN(C1)C3c1ccco1)C2=O (stereo unspecified)
AC50 (Cytochrome P450 2C19; read-out: AC50): 28.2 µM (inconclusive)

COc1ccc(NC(=O)CSc2nc(O)cc(=O)n2-c2ccccc2)cc1
EC50 [3]: 23.1 µM (active)
EC50 (Streptococcus): 26.1 µM (active)

CC[C@H]1OC(=O)[C@H](C)[C@@H](O[C@H]2C[C@@](C)(OC)[C@@H](O)[C@H](C)O2)[C@H](C)[C@@H](O[C@@H]2O[C@H](C)C[C@H](N(C)C)[C@H]2O)[C@](C)(O)C[C@@H](C)C(=NOCOCCOC)[C@H](C)[C@@H](O)[C@]1(C)O
EC50 [3]: < 0.06 µM (active)
EC50 (Streptococcus): < 0.06 µM (active)

CC(=O)C(Sc1ncnc2c1nnn2-c1ccc(F)cc1)C(=O)N(C)C (stereo unspecified)
AC50 [1]: 21.8 µM (active)
EC50 (Protein RecA): 15.7 µM (active)

C#CCCCO/N=C1/C[C@@H](O)[C@@H](O)[C@@H]2[C@@H]3C(=O)N(CCC(=O)OCC)C(=O)[C@H]3CC[C@H]12
AC50 (Cytochrome P450 3A4): 5.01 µM (inconclusive)
